# Reference: PubChem BioAssay (NCI)
#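 A five-concentration, 48-hour dose response in 96-well plates underlies each endpoint, interpolated linearly between surrounding concentrations. Abbreviation: GI50, concentration required for 50% inhibition of growth. Definition used: TGI = concentration required for complete inhibition of growth.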
# Key:
# Assay in all cases: DTP human tumour cell line panel, 48 h
# SW-620 colon = test system: SW-620 colon
# OVCAR-8 ovarian = test system: OVCAR-8 ovarian
# MOLT-4 leukemia = test system: MOLT-4 leukemia
# RXF 393 renal = test system: RXF 393 renal
# HCC-2998 colon = test system: HCC-2998 colon
# SN12C renal = test system: SN12C renal
# SK-MEL-5 melanoma = test system: SK-MEL-5 melanoma
# NCI-H522 lung = test system: NCI-H522 lung
# NCI-H226 lung = test system: NCI-H226 lung
# HOP-62 NSCLC = test system: HOP-62 NSCLC
# UACC-257 melanoma = test system: UACC-257 melanoma
# SK-MEL-2 melanoma = test system: SK-MEL-2 melanoma
# LOX IMVI melanoma = test system: LOX IMVI melanoma
Compound,GI50 (SW-620 colon),TGI (SW-620 colon),GI50 (OVCAR-8 ovarian),TGI (OVCAR-8 ovarian),GI50 (MOLT-4 leukemia),TGI (MOLT-4 leukemia),GI50 (RXF 393 renal),TGI (RXF 393 renal),GI50 (HCC-2998 colon),TGI (HCC-2998 colon),GI50 (SN12C renal),TGI (SN12C renal),GI50 (SK-MEL-5 melanoma),TGI (SK-MEL-5 melanoma),TGI (NCI-H522 lung),TGI (NCI-H226 lung),TGI (HOP-62 NSCLC),TGI (UACC-257 melanoma),TGI (SK-MEL-2 melanoma),TGI (LOX IMVI melanoma)
Cc1ccc(C2CC(c3cccc(Nc4ccncc4)c3)=NN2c2ccccc2)cc1 (stereo unspecified),1.71 µM,3.3 µM,2.19 µM,4.85 µM,1.95 µM,4.64 µM,1.61 µM,3.02 µM,1.6 µM,2.96 µM,1.69 µM,3.19 µM,1.79 µM,3.24 µM,,,,,,
O=c1nc2sc3ccc4ccccc4c3n2[nH]c1=O,,> 100 µM,,> 100 µM,,> 100 µM,,38.1 µM,,> 100 µM,,> 100 µM,,> 100 µM,> 100 µM,> 100 µM,71.5 µM,,,
COc1cc2c(c(OC(C)=O)c1OC(C)=O)-c1ccc(SC)c(=O)cc1C(NC(C)=O)CC2 (stereo unspecified),,> 100 µM,,55.1 µM,,> 100 µM,,> 100 µM,,> 100 µM,,> 100 µM,,3.46 µM,1.2 µM,15.1 µM,> 75.5 µM,> 100 µM,7.07 µM,> 100 µM
CCOC(=O)NC(Nc1ccc(Cl)cn1)(C(F)(F)F)C(F)(F)F,,,,,,> 100 µM,,> 100 µM,,> 100 µM,,,,,> 100 µM,> 100 µM,> 100 µM,> 100 µM,> 100 µM,> 100 µM
CC1=CC(C)(C)Nc2ccc(CSc3ccccc3)cc21,,> 100 µM,,> 100 µM,,,,38.3 µM,,45.1 µM,,62.1 µM,,32.9 µM,46.5 µM,> 100 µM,80 µM,59.3 µM,52.2 µM,82.3 µM
N#CCCN(CCC#N)c1ccc(/C=C2\N=C(c3cc([N+](=O)[O-])ccc3Cl)N(NC(=O)CC(=O)Nc3ccccc3Cl)C2=O)cc1,,> 100 µM,,> 100 µM,,> 100 µM,,> 100 µM,,> 100 µM,,> 100 µM,,> 100 µM,> 100 µM,35.6 µM,> 100 µM,,> 100 µM,> 100 µM
CC(C)CN(CC#N)CC(C)C,,> 100 µM,,> 100 µM,,> 100 µM,,> 100 µM,,> 100 µM,,> 100 µM,,> 100 µM,> 100 µM,> 100 µM,> 100 µM,> 100 µM,,> 100 µM
CCCCCCCCCCCCCCCC(=O)OC1C(O)C(CO)OC(OC)C1NC(=O)N(CCCl)N=O (stereo unspecified),,26.1 µM,,38.1 µM,,23 µM,,,,,,,,30.2 µM,23.8 µM,33.7 µM,32.3 µM,31.5 µM,44.3 µM,23.9 µM
[O-][n+]1c(-c2ccccc2)c2nc3ccccc3nc2c2ccccc21,,> 100 µM,,> 100 µM,,> 100 µM,,> 100 µM,,> 100 µM,,> 100 µM,,> 100 µM,> 100 µM,> 100 µM,> 100 µM,> 100 µM,> 100 µM,> 100 µM
O=[As](O)(O)c1ccc2nc3cc([As](=O)(O)O)ccc3nc2c1,,> 100 µM,,> 100 µM,,> 100 µM,,> 100 µM,,> 100 µM,,> 100 µM,,> 100 µM,> 100 µM,> 100 µM,> 100 µM,> 100 µM,> 100 µM,> 100 µM
C[C@]12CC[C@@H]3c4ccc(OCCN5CCCC5)cc4CC[C@H]3[C@@H]1CCC2=O,,> 100 µM,,> 100 µM,,70.2 µM,,> 100 µM,,25.1 µM,,,,30 µM,,54 µM,44.5 µM,> 100 µM,35.1 µM,29.7 µM
CC(=O)N/C(=C\c1ccc(/C=C(\NC(C)=O)C2=NC3C(=O)c4ccccc4C(=O)C3N2)cc1)C1=NC2C(=O)c3ccccc3C(=O)C2N1 (stereo unspecified),,,,> 100 µM,,26.6 µM,,> 100 µM,,,,> 100 µM,,,> 100 µM,> 100 µM,,> 100 µM,,> 100 µM
CCN(CC)CCNc1ccc2nnn3c4ccccc4c(=O)c1c23,,15.4 µM,,18.6 µM,,6.7 µM,,18.5 µM,,20.9 µM,,33.4 µM,,10.3 µM,16.4 µM,8.09 µM,15.8 µM,22.3 µM,14 µM,12 µM
C[N+](C)([O-])Cc1cc(-c2ccccc2)ccc1O,,> 100 µM,,,,> 100 µM,,> 100 µM,,> 100 µM,,> 100 µM,,> 100 µM,> 100 µM,> 100 µM,> 100 µM,> 100 µM,> 100 µM,> 100 µM
CCCOC1OC(CS(=O)(=O)O)C(O)C(O)C1O (stereo unspecified),,> 100 µM,,> 100 µM,,> 100 µM,,> 100 µM,,> 100 µM,,> 100 µM,,> 100 µM,,> 100 µM,> 100 µM,> 100 µM,> 100 µM,> 100 µM
NC(N)=NC(N)=Nc1ccccc1 (tested in a mixture with another compound),,> 100 µM,,> 100 µM,,,,> 100 µM,,> 100 µM,,> 100 µM,,> 100 µM,> 100 µM,> 100 µM,> 100 µM,> 100 µM,> 100 µM,> 100 µM
